US9783511B2, “Carbamate benzoxazine propionic acids and acid derivatives for modulation of RORgamma activity and the treatment of disease” (Merck Sharp & Dohme Corp., priority 2013, dated 2017)

Target: human RORgammaT-Ligand Binding Domain (LBD) (Homo sapiens (Human), UniProt P51449)
Test: RORγ-Ligand Binding Domain TR-FRET Assay (co-activator peptide SRC1_2 recruitment)
Type: biochemical
Details: HIS-tagged RORγ-LBD 3 nM, biotinylated SRC1 LXXLL peptide 100 nM, incubated overnight at 4° C., 665 nm/615 nm ratio
Description: Activation of RORgammaT activity can be measured using, e.g., a biochemical TR-FRET assay. In such an assay, interaction of cofactor-derived peptides with human RORgammaT-Ligand Binding Domain (LBD) can be measured.
To identify novel antagonists of RORgammaT, an assay was developed which employs the interaction of RORgammaT with its co-activator peptide SRC1_2. […] The RORγ-Ligand Binding Domain TR-FRET Assay was run according to the following protocol.
HIS-tagged RORγ-LBD protein was recombinantly expressed in Escherichia coli. The RORγ-LBD protein was purified by Ni^2+-affinity resin. Purified protein was then diluted in assay buffer (50 mM Tris pH 7.0, 50 mM KCl, 1 mM EDTA, 0.1 mM DTT, 100 μg/mL bovine serum albumin, delipidated) to obtain a RORγ-LBD final concentration of 3 nM.
Compounds to be tested were injected to the 384-well assay plate using Acoustic Droplet Ejection technology by Echo 550 liquid handler (Labcyte, CA).

Chain of human RORgammaT-Ligand Binding Domain (LBD) (P51449 269-508): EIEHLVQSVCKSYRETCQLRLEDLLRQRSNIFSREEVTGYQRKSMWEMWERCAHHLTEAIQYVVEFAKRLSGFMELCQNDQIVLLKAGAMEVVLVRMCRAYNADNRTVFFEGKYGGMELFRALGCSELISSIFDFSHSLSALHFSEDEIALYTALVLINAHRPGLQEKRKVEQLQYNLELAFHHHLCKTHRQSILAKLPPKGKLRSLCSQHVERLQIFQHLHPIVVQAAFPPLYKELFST

## CC(C)(OC(=O)Nc1ccc2c(c1)N(S(=O)(=O)c1cccc(C(F)(F)F)c1)C[C@H](CC(O)C(=O)O)O2)C(F)(F)F (mixture of isomers) [Example 15, (R and S)-2-hydroxy-3-((S)-6-((((1,1,1-trifluoro-2-methylpropan-2-yl)oxy)carbonyl)amino)-4-((3-(trifluoromethyl)phenyl)sulfonyl)-3,4-dihydro-2H-benzo[b][1,4]oxazin-2-yl)propanoic acid]
  IC50: 18.1 nM

## COc1cc(S(=O)(=O)N2C[C@H](CC(O)C(=O)O)Oc3ccc(NC(=O)OC(C)(C)C(F)(F)F)cc32)ccc1F (mixture of isomers) [Example 18F, (R and S)-3-((S)-4-((4-fluoro-3-methoxyphenyl)sulfonyl)-6-((((1,1,1-trifluoro-2-methylpropan-2-yl)oxy)carbonyl)amino)-3,4-dihydro-2H-benzo[b][1,4]oxazin-2-yl)-2-hydroxypropanoic acid]
  IC50: 9.39 nM

## Cc1nn(C(F)F)cc1S(=O)(=O)N1C[C@H](C[C@@H](C)C(=O)O)Oc2ccc(NC(=O)OC(C)(C)C(F)(F)F)cc21 (single isomer, unassigned) [Example 6BG, (R or S)-3-((S)-4-((1-(difluoromethyl)-3-methyl-1H-pyrazol-4-yl)sulfonyl)-6-((((1,1,1-trifluoro-2-methylpropan-2-yl)oxy)carbonyl)amino)-3,4-dihydro-2H-benzo[b][1,4]oxazin-2-yl)-2-methylpropanoic acid]
  IC50: 13.3 nM

## CCOc1sc(C2CC2)nc1S(=O)(=O)N1C[C@H](C[C@@H](C)C(=O)O)Oc2ccc(NC(=O)OC(C)(C)C(F)(F)F)cc21 (single isomer, unassigned) [Example 6BP, (R or S)-3-((S)-4-((2-cyclopropyl-5-ethoxythiazol-4-yl)sulfonyl)-6-((((1,1,1-trifluoro-2-methylpropan-2-yl)oxy)carbonyl)amino)-3,4-dihydro-2H-benzo[b][1,4]oxazin-2-yl)-2-methylpropanoic acid]
  IC50: 26.6 nM

## CCc1nc(S(=O)(=O)N2C[C@H](C[C@@H](C)C(=O)O)Oc3ccc(NC(=O)OC(C)(C)C(F)(F)F)cc32)c(OCC(F)(F)F)s1 (single isomer, unassigned) [Example 6BR, (R or S)-3-((S)-4-((2-ethyl-5-(2,2,2-trifluoroethoxy)thiazol-4-yl)sulfonyl)-6-((((1,1,1-trifluoro-2-methylpropan-2-yl)oxy)carbonyl)amino)-3,4-dihydro-2H-benzo[b][1,4]oxazin-2-yl)-2-methylpropanoic acid]
  IC50: 12.3 nM

## CCOc1sc(CC)nc1S(=O)(=O)N1C[C@H](C[C@@H](C)C(=O)O)Oc2ccc(NC(=O)OC(C)(C)C(F)(F)F)cc21 (single isomer, unassigned) [Example 6Bo, (R or S)-3-((S)-4-((5-ethoxy-2-ethylthiazol-4-yl)sulfonyl)-6-((((1,1,1-trifluoro-2-methylpropan-2-yl)oxy)carbonyl)amino)-3,4-dihydro-2H-benzo[b][1,4]oxazin-2-yl)-2-methylpropanoic acid]
  IC50: 11.9 nM

## Cc1cccc(S(=O)(=O)N2C[C@H](C[C@@H](C)C(=O)O)Oc3ccc(NC(=O)OC(C)(C)C(F)(F)F)cc32)c1 (single isomer, unassigned) [Example 6CK, (S or R)-2-methyl-3-((S)-4-(m-tolylsulfonyl)-6-((((1,1,1-trifluoro-2-methylpropan-2-yl)oxy)carbonyl)amino)-3,4-dihydro-2H-benzo[b][1,4]oxazin-2-yl)propanoic acid]
  IC50: 14.5 nM

## C[C@H](C[C@H]1CN(S(=O)(=O)c2cccc(OC(F)F)c2)c2cc(NC(=O)OC(C)(C)C(F)(F)F)ccc2O1)C(=O)O (single isomer, unassigned) [Example 6CM, (S or R)-3-((S)-4-((3-(difluoromethoxy)phenyl)sulfonyl)-6-((((1,1,1-trifluoro-2-methylpropan-2-yl)oxy)carbonyl)amino)-3,4-dihydro-2H-benzo[b][1,4]oxazin-2-yl)-2-methylpropanoic acid]
  IC50: 5.25 nM

## Cc1cccc(S(=O)(=O)N2C[C@H](C[C@H](C)C(=O)O)Oc3ccc(NC(=O)OC(C)(C)C(F)(F)F)cc32)c1 (single isomer, unassigned) [Example 6CP, (S or R)-2-methyl-3-((S)-4-(m-tolylsulfonyl)-6-((((1,1,1-trifluoro-2-methylpropan-2-yl)oxy)carbonyl)amino)-3,4-dihydro-2H-benzo[b][1,4]oxazin-2-yl)propanoic acid]
  IC50: 11.6 nM

## C[C@@H](C[C@H]1CN(S(=O)(=O)c2cccc(C3CC3)c2)c2cc(NC(=O)OC(C)(C)C(F)(F)F)ccc2O1)C(=O)O (single isomer, unassigned) [Example 6CU, (S or R)-3-((S)-4-((3-cyclopropylphenyl)sulfonyl)-6-((((1,1,1-trifluoro-2-methylpropan-2-yl)oxy)carbonyl)amino)-3,4-dihydro-2H-benzo[b][1,4]oxazin-2-yl)-2-methylpropanoic acid]
  IC50: 17.8 nM

## C[C@H](C[C@H]1CN(S(=O)(=O)c2cccc(C3CC3)c2)c2cc(NC(=O)OC(C)(C)C(F)(F)F)ccc2O1)C(=O)O (single isomer, unassigned) [Example 6CW, (R or S)-3-((S)-4-((3-cyclopropylphenyl)sulfonyl)-6-((((1,1,1-trifluoro-2-methylpropan-2-yl)oxy)carbonyl)amino)-3,4-dihydro-2H-benzo[b][1,4]oxazin-2-yl)-2-methylpropanoic acid]
  IC50: 10.2 nM

## C[C@H](C[C@H]1CN(S(=O)(=O)c2ccnc(C(F)(F)F)c2)c2cc(NC(=O)OC(C)(C)C(F)(F)F)ccc2O1)C(=O)O (single isomer, unassigned) [Example 6CZ, (R or S)-2-methyl-3-((S)-6-((((1,1,1-trifluoro-2-methylpropan-2-yl)oxy)carbonyl)amino)-4-((2-(trifluoromethyl)pyridin-4-yl)sulfonyl)-3,4-dihydro-2H-benzo[b][1,4]oxazin-2-yl)propanoic acid]
  IC50: 15.3 nM

## C[C@@H](C[C@H]1CN(S(=O)(=O)c2cccc(OC(F)F)c2)c2cc(NC(=O)OC(C)(C)C(F)(F)F)ccc2O1)C(=O)O (single isomer, unassigned) [Example 6Co, (S or R)-3-((S)-4-((3-(difluoromethoxy)phenyl)sulfonyl)-6-((((1,1,1-trifluoro-2-methylpropan-2-yl)oxy)carbonyl)amino)-3,4-dihydro-2H-benzo[b][1,4]oxazin-2-yl)-2-methylpropanoic acid]
  IC50: 8.38 nM

## C[C@@H](C[C@H]1CN(S(=O)(=O)c2ccnc(C(F)(F)F)c2)c2cc(NC(=O)OC(C)(C)C(F)(F)F)ccc2O1)C(=O)O (single isomer, unassigned) [Example 6DA, (R or S)-2-methyl-3-((S)-6-((((1,1,1-trifluoro-2-methylpropan-2-yl)oxy)carbonyl)amino)-4-((2-(trifluoromethyl)pyridin-4-yl)sulfonyl)-3,4-dihydro-2H-benzo[b][1,4]oxazin-2-yl)propanoic acid]
  IC50: 14.9 nM

## C[C@H](C[C@H]1CN(S(=O)(=O)c2ccnc(C3CC3)c2)c2cc(NC(=O)OC(C)(C)C(F)(F)F)ccc2O1)C(=O)O (single isomer, unassigned) [Example 6DB, (R or S)-3-((S)-4-((2-cyclopropylpyridin-4-yl)sulfonyl)-6-((((1,1,1-trifluoro-2-methylpropan-2-yl)oxy)carbonyl)amino)-3,4-dihydro-2H-benzo[b][1,4]oxazin-2-yl)-2-methylpropanoic acid]
  IC50: 11.5 nM

## C[C@@H](C[C@H]1CN(S(=O)(=O)c2ccnc(C3CC3)c2)c2cc(NC(=O)OC(C)(C)C(F)(F)F)ccc2O1)C(=O)O (single isomer, unassigned) [Example 6DC, (R or S)-3-((S)-4-((2-cyclopropylpyridin-4-yl)sulfonyl)-6-((((1,1,1-trifluoro-2-methylpropan-2-yl)oxy)carbonyl)amino)-3,4-dihydro-2H-benzo[b][1,4]oxazin-2-yl)-2-methylpropanoic acid]
  IC50: 16.2 nM

## C[C@H](C[C@H]1CN(S(=O)(=O)c2cn(C(F)F)nc2Cl)c2cc(NC(=O)OC(C)(C)C(F)(F)F)ccc2O1)C(=O)O (single isomer, unassigned) [Example 6DD, (R or S)-3-((S)-4-((3-chloro-1-(difluoromethyl)-1H-pyrazol-4-yl)sulfonyl)-6-((((1,1,1-trifluoro-2-methylpropan-2-yl)oxy)carbonyl)amino)-3,4-dihydro-2H-benzo[b][1,4]oxazin-2-yl)-2-methylpropanoic acid]
  IC50: 23.6 nM

## C[C@@H](C[C@H]1CN(S(=O)(=O)c2cn(C(F)F)nc2Cl)c2cc(NC(=O)OC(C)(C)C(F)(F)F)ccc2O1)C(=O)O (single isomer, unassigned) [Example 6DE, (R or S)-3-((S)-4-((3-chloro-1-(difluoromethyl)-1H-pyrazol-4-yl)sulfonyl)-6-((((1,1,1-trifluoro-2-methylpropan-2-yl)oxy)carbonyl)amino)-3,4-dihydro-2H-benzo[b][1,4]oxazin-2-yl)-2-methylpropanoic acid]
  IC50: 40.3 nM

## CC[C@H](C[C@H]1CN(S(=O)(=O)c2cccc(C3CC3)c2)c2cc(NC(=O)OC(C)(C)C(F)(F)F)ccc2O1)C(=O)O (single isomer, unassigned) [Example 10D, (R or S)-2-(((S)-4-((3-cyclopropylphenyl)sulfonyl)-6-((((1,1,1-trifluoro-2-methylpropan-2-yl)oxy)carbonyl)amino)-3,4-dihydro-2H-benzo[b][1,4]oxazin-2-yl)methyl)butanoic acid]
  IC50: 12.8 nM
